From PMC2409895, “Antitumour efficacy of VEGFR2 tyrosine kinase inhibitor correlates with expression of VEGF and its receptor VEGFR2 in tumour models” (British Journal of Cancer, 2004)
pIC50: −log10 of the molar value.

How the values were obtained:
human VEGFR2 kinase = target: T1, human VEGFR2 kinase (Homo sapiens, UniProt P35968); assay: VEGFR2 kinase assay (HTRF); format: biochemical; settings: Table 1
T1 construct: GST-fusion protein encoding the catalytic carboxyl-terminus of human VEGFR kinase 1, 2, or 3; made in house; host or cells: baculovirus expression system
Description: Vascular endothelial growth factor receptor kinase assays were carried out in a homogenous time-resolved fluorescence (HTRF) format in 384-well microtitre plates using a purified, baculovirus-expressed GST-fusion protein encoding the catalytic carboxyl-terminus of human VEGFR kinase 1, 2, or 3. Reactions were initiated by the addition of 10 μl of activated VEGFR kinase (1 nM, 0.1 M HEPES pH 7.5, 0.1 mg ml^−1 BSA, and 0.30 mM DTT) to 10 μl of substrate (360 nM biotin-aminohexyl-EEEEYFELVAKKKK-NH2 peptide, 75 μM ATP, 10 mM MgCl2) and 1 μl of small molecule inhibitor at various concentrations. Plates were incubated at room temperature for 60 min, and the reaction was stopped by the addition of 20 μl 100 mM EDTA. Homogenous time-resolved fluorescence reagents (20 μl 15 nM streptavidin-linked allophycocyanin, 1 nM europium-labelled anti-phosphotyrosine antibody in 0.1 M HEPES, pH 7.5, 0.1 mg ml^−1 BSA) were added and plates were incubated for a minimum of 10 min. The fluorescence at 665 nm was measured with a Victor plate reader (Wallac, Shelton, CT, USA) using a time delay of 50 μs. […] Data were fitted with a curve described by: y=((Vmax × x)/(K+x)+Y2), where Vmax is the upper asymptote, Y2 is the Y intercept, and K is the IC50.

[1] = system: HUVEC grown in presence of VEGF; assay: VEGF-induced HUVEC proliferation (BrdU incorporation); format: cell-based; settings: Homo sapiens, VEGF 10 ng ml^−1, 72 h
Description: (§1) Effect of kinase inhibitors on cell proliferation was measured using BrdU incorporation method using commercially available kits (Roche Diagnostics, Indianapolis, IN, USA). Briefly, HUVEC were seeded in a medium containing 5% FBS in type 1 Collagen-coated 96-well plates and incubated overnight at 37°C, 5% CO2. The medium was aspirated from the cells, and various concentrations of kinase inhibitors in serum-free medium were added to each well. After 30 min, VEGF (10 ng ml^−1) or bFGF (0.3 ng ml^−1) was added to the wells. Cells were incubated for an additional 72 h and BrdU (10 μM) was added during the last 18–24 h of incubation. Data were fitted with a curve described by the equation, y=Vmax × (1−(x/(K+x))), where K is equal to the IC50.

[2] = system: HUVEC grown in presence of bFGF; assay: bFGF-induced HUVEC proliferation (BrdU incorporation); format: cell-based; settings: Homo sapiens, bFGF 0.3 ng ml^−1, 72 h
Description: as §1

T1 sequence (P35968 834-1162 limits assumed): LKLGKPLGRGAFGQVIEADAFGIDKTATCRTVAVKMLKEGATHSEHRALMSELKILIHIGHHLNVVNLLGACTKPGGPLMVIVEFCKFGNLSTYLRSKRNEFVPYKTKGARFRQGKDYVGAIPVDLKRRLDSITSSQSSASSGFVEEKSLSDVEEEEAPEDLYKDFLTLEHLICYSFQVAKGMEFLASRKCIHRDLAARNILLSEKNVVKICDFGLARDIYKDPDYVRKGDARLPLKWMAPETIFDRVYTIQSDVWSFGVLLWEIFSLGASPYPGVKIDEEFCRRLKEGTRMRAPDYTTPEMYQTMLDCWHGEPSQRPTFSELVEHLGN

- pIC50 (human VEGFR2 kinase): 8.10
Structure (SMILES): COc1cc(Nc2nccc(Nc3ccc4c(C)n[nH]c4c3)n2)cc(OC)c1OC [GW612286, N^4-(3-methyl-1H-indazol-6-yl)-N^2-(3,4,5-trimethoxyphenyl)pyrimidine-2,4-diamine]
- pIC50 [1]: 6.74
- pIC50 [2]: 5.44
